# Results from ChEMBL document CHEMBL1201862, “PubChem BioAssay data set” (2004).
# Active and inactive are the calls of the source.
# What was measured:
# Cytochrome P450 3A4 = Cytochrome P450 3A4 (Homo sapiens, UniProt P08684);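 further: CYP3A4 tested as one member of a cytochrome P450 panel screen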
# [1] = biological target: T1, Heat shock factor protein 1 (Mus musculus, UniProt P38532); test: enhancement of HSF1-driven luciferase signal – cell-based, NIH3T3, luminescence, dose retest, confirmation (AID 435004); format: functional;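 further: stress induced by proteasome inhibitor MG132 added 30 min after compound; luciferase reporter driven by HSF1 response element in NIH3T3 cells; actives raise luminescence as potentiators of the MG132 stress response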
# T1 sequence (P38532 whole entry): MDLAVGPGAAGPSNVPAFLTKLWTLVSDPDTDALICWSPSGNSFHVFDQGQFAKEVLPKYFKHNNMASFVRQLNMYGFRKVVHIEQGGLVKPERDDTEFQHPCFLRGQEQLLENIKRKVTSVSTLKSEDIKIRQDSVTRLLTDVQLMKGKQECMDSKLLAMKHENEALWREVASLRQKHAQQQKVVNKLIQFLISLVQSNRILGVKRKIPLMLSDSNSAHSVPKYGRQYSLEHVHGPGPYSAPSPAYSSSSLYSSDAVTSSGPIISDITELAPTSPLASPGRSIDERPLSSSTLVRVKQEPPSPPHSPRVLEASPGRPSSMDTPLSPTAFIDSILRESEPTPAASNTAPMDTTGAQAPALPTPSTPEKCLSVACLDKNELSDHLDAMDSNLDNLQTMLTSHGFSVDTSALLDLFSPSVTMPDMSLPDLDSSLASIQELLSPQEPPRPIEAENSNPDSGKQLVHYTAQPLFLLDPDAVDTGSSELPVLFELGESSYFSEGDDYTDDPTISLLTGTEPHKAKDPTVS
# Cytochrome P450 2C19 = Cytochrome P450 2C19 (Homo sapiens, UniProt P33261); test: Cytochrome panel assay with activity outcomes. Panel member name: p450-cyp2c19 Compounds with AC50 equal or less than 10 uM are considered active; format: functional
# [2] = luciferase reporter signal suppression in cells – H4 neuroglioma cells, luminescence, dose response (AID 1990); format: functional, cell-based
# [3] = Luminescence Cell-Based Dose Response HTS to Identify Inhibitors of 5'UTR Stem-Loop Driven Prion Protein mRNA Translation in H4 Neuroglioblastoma Cells. [Related pubchem assays: 1827 (Project Summary), 1813 (Primary HTS)]; format: functional
# [4] = alpha-synuclein stem-loop luciferase translation blockers – H4 neuroglioma cells, luminescence, confirmation (AID 1988); format: functional, cell-based
# [5] = biological target: T1, Heat shock factor protein 1; test: decrease of HSF1-responsive luciferase luminescence – cell-based, NIH3T3, dose retest, confirmation (AID 2382); format: functional;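 further: NIH3T3 fibroblasts with HSF1-driven luciferase reporter stressed by proteasome inhibitor MG132; luminescence from HSF1-driven luciferase expression after 8 hours of MG132 stress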
# [6] = Trypanosoma cruzi growth suppression in host cells – NIH3T3 host cells, beta-gal luminescence, confirmation (AID 2044); format: functional, cell-based;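 further: intracellular parasites grown in NIH/3T3 mouse fibroblasts as host cells; luminescent beta-galactosidase reporter signal from transgenic T. cruzi replicating inside host cells; inhibitors lower the luminescence signal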
# [7] = NIH3T3 cell viability loss – ATP luminescence, mouse fibroblasts, counter-screen, dose response (AID 2010); format: functional, cell-based;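 further: cells exposed to compound for about 90 hours before reading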
# Chain of Cytochrome P450 3A4 (P08684 whole entry): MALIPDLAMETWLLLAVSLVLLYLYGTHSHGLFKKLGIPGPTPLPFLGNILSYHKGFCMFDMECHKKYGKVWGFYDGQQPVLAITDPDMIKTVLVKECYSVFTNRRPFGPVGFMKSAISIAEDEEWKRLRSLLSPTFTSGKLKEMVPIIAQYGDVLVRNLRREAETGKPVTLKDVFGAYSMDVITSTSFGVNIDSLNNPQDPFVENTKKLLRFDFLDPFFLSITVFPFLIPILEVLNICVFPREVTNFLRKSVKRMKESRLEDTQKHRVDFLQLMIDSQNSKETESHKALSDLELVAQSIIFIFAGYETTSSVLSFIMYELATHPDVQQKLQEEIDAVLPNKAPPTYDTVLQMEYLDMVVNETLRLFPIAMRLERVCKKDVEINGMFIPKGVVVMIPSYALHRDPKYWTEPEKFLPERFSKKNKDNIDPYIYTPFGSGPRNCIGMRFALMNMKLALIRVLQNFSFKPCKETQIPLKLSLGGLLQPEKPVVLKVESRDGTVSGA
# Chain of Cytochrome P450 2C19 (P33261 whole entry): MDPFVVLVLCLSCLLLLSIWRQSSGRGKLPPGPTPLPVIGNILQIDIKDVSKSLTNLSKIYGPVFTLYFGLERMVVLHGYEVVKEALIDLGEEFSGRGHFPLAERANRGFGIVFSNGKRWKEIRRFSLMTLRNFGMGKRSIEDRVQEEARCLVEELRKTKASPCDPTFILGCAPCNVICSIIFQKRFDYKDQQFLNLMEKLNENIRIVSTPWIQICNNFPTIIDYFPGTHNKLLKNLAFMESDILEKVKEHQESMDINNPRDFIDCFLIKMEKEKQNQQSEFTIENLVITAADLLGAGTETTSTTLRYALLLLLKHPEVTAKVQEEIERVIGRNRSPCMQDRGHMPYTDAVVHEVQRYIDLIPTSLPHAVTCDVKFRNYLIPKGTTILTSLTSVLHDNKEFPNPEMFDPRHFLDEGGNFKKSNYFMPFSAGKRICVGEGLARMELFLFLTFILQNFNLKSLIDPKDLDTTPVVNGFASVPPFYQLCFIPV
smiles,measurement,setting,value
Nc1cc(Cl)ccc1Oc1ccccc1,AC50,Cytochrome P450 3A4,22.4 µM (inconclusive)
Cc1cc(C)n(Cc2ccc(Cl)cc2Cl)c(=O)c1S(=O)(=O)c1ccccc1,EC50,[1],> 260 µM (inactive)
CCOC(=O)CCCNC(=O)CCCNC(=O)C(c1ccccc1)c1ccccc1,AC50,Cytochrome P450 2C19; read-out: AC50,14.1 µM (inconclusive)
same,AC50,Cytochrome P450 3A4,8.91 µM (inconclusive)
Cc1ccc(-c2nnc(N3CCN(C(=O)c4cccs4)CC3)c3ccccc23)cc1,EC50,[2],> 120 µM (not active)
same,EC50,[3],> 120 µM (not active)
same,EC50,[4],22 µM (active)
CCOc1cc(OCC)cc(C(=O)O)c1,EC50,[5],> 195 µM (not active)
CCc1cc2c(nc1CC)CCN(CC/C(C)=N/OC[C@@H](C)[C@H](OCc1ccccc1)C(C)C)C2,AC50,Cytochrome P450 3A4,3.98 µM (inconclusive)
Cn1cccc1C(=O)N1CCC2(CCCN(C(=O)Nc3ccccc3)C2)CC1,AC50,Cytochrome P450 3A4,31.6 µM (inconclusive)
CCn1c(SCC(=O)Nc2nc(C)c(C)s2)nnc1-c1cccnc1,EC50,[2],> 120 µM (not active)
same,EC50,[3],> 120 µM (not active)
same,EC50,[4],> 120 µM (not active)
COc1ccc(CN(CC2CCC(C(=O)O)CC2)C(=S)Nc2ccc(C)c(Cl)c2)cc1 (configuration not stated),EC50,[6],> 60 µM (not active)
same,EC50,[7],> 60 µM (not active)
COC(=O)C1=CN(Cc2ccc(OC)c(OC)c2)C=C(C(=O)OC)C1c1cccc(F)c1,EC50,[2],15.1 µM (active)
same,EC50,[3],> 120 µM (not active)
same,EC50,[4],65.7 µM (active)
same,EC50,[6],0.156 µM (active)
same,EC50,[7],> 60 µM (not active)
CCOC(=O)c1ccc(-c2c(-c3cc(OC)c(OC)c(OC)c3)noc2C)cc1F,EC50,[2],9.94 µM (inconclusive)
same,EC50,[3],11.4 µM (active)
same,EC50,[4],1.43 µM (active)
COc1ccc(C)cc1S(=O)(=O)Nc1cc2c3c(c1)CCC(=O)N3CCC2,EC50,[5],> 195 µM (not active)
COc1ccc(CN2CC(=O)N(c3ccc(C)c(C)c3)C2=S)cc1OC,EC50,[2],21.3 µM (active)
same,EC50,[3],> 120 µM (not active)
same,EC50,[4],20.4 µM (active)
Cc1cc(CN2CCN(CCC#N)CC2)c(O)c(C2(C)CCCCC2)c1,EC50,[6],1.1 µM (active)
same,EC50,[7],> 60 µM (not active)
CCOC(=O)Cc1cnc(NC(=O)c2ccccc2)s1,EC50,[5],> 195 µM (not active)
CCN(C(=O)c1cccc(S(=O)(=O)N2CCCCC2)c1)C1CCS(=O)(=O)C1 (configuration not stated),EC50,[1],> 260 µM (inactive)
CC(C)(C)OC(=O)N1CCN(C(=O)c2[nH]cnc2C(=O)NCC(=O)OCc2ccccc2)CC1,EC50,[5],> 195 µM (not active)
O=C(c1ccc(SCc2cccc(Br)c2)c([N+](=O)[O-])c1)N1CCN(c2ccccn2)CC1,EC50,[6],2.08 µM (active)
same,EC50,[7],> 60 µM (not active)
O=C(Nc1c2c(nn1-c1ccc(F)cc1)CS(=O)(=O)C2)C12CC3CC(CC(C3)C1)C2,AC50,Cytochrome P450 2C19,inconclusive
O=C(Cc1ccccc1)NCCSCc1ccc(Cl)cc1,AC50,Cytochrome P450 3A4,14.1 µM (inconclusive)
Nc1nc(NC(=O)C(Cl)(Cl)Cl)nn1-c1ccccc1,EC50,[5],> 195 µM (not active)
CC(CCCC(C)(C)O)NC(=O)c1ccc2oc(CCc3ccccc3)nc2c1 (configuration not stated),EC50,[5],> 195 µM (not active)
O=C1[C@H]2[C@H]3[C@H](O)[C@H](O)C/C(=N/OC[C@@H](O)COCc4ccco4)[C@@H]3CC[C@@H]2C(=O)N1c1cccc(Oc2ccccc2)c1,AC50,Cytochrome P450 3A4,7.94 µM (inconclusive)
Cc1ccc2[nH]c(SCC(=O)Nc3cccc(S(=O)(=O)NC4=NCCCCC4)c3)nc2c1,EC50,[1],> 260 µM (inactive)
O=C1CCN(Cc2ccccc2)N1,EC50,[1],> 260 µM (inactive)
COc1ccc(OC)c(C2CC(=O)Nc3[nH]nc(-c4ccccc4)c32)c1 (configuration not stated),EC50,[2],> 120 µM (not active)
same,EC50,[3],> 120 µM (not active)
same,EC50,[4],> 120 µM (not active)
COC(=O)c1ccc(COc2cccc3c2CCN(Cc2cccc(C)c2)C3=O)o1,EC50,[2],> 120 µM (not active)
same,EC50,[3],> 120 µM (not active)
same,EC50,[4],107 µM (active)
CN1CC[C@@]2(CCCN(C(=O)c3cccn3C)C2)C1,AC50,Cytochrome P450 3A4,7.94 µM (inconclusive)
O=C(/C=C/c1ccccc1)NC(=S)N1CCSCC1,EC50,[5],> 195 µM (not active)
Cc1ccc(-c2nnn(CC(=O)N(Cc3cccs3)C(C(=O)NC3CCCC3)c3ccncc3)n2)cc1 (configuration not stated),EC50,[5],> 195 µM (not active)
Cc1ccc(S(=O)(=O)c2c(C)cc(C)nc2Cl)c(C)c1,EC50,[6],2 µM (active)
same,EC50,[7],> 60 µM (not active)
